Experimental data: patent US20170240556A1, “BIFLUORODIOXALANE-AMINO-BENZIMIDAZOLE KINASE INHIBITORS FOR THE TREATMENT OF CANCER, AUTOIMMUNEINFLAMMATION AND CNS DISORDERS” (4SC DISCOVERY GMBH, priority 2012, published 2017)
Where two headings read alike, the source gives them in different places.

Assays:
Experiment in all cases: Proliferation Assay
Format in all cases: cell-based
A549 (lung) = conditions: Homo sapiens, 72 h, read-out: IC50 inhibition of cell growth
Procedure: (§1) For the determination of the inhibitory capacity of compounds of the present invention (in the following: “test compound(s)”) on cell growth, cancer cells were seeded into microtitre plates, treated with different concentrations of test compound or left untreated, and after 72 h the protein content was determined as an equivalent for the cell number.
(§2) Test compounds were dissolved in 100% DMSO and predilutions in cell culture medium were prepared with a final concentration of 0.1% DMSO in medium. The cell culture medium for dilution of the test compounds, consecutive culturing of cell lines and usage during the assay was a cell line specific medium as recommended by the cell line supplier and identical for all three applications mentioned above. After a 24-hour pre-growth period of the seeded cancer cells, the test compound containing media or medium containing 0.1% DMSO as control was added to the cells. The cells were allowed to grow at 37° C. for 72 hours. In addition, all experiments contained a few plates with cells that were processed for measurement immediately after the 24 hours recovery period. These plates contained information about the cell number that existed before treatment, at time zero, and served to calculate the cytotoxicity and/or growth inhibitory effects.
(§3) After treatment, cells were precipitated by addition of 10% TCA (trichloracetic acid). Prior to fixation, the media was aspirated. After an hour of incubation at 4° C. the plates were washed twice with 400 μl of deionized water. Cells were then stained with 100 μl of a 0.08% wt/v SRB (sulforhodamine). The plates were allowed to sit for at least 30 min and washed six times with 1% acetic acid to remove unbound staining agent. The plates were left to dry at room temperature and bound SRB was solubilized with 100 μl of 10 mM Tris base. Measurement of optical density was performed at 560 nm on a Victor 2 plate reader (Perkin Elmer, Germany).
(§4) One common way to express the effect of an anticancer agent is to measure cell viability and survival in the presence of the test agent as % Treated/Control×100. The relationship between the viability and dose is called a dose response curve. Those dose response curves were determined by using algorithms developed by Oncolead GmbH & Co. KG, Munich, Germany, that can be compared to commercial applications, e.g. XLfit™ (ID Business Solutions Ltd., Guildford, UK) algorithm “205”.

C33A (cervix) = conditions: Homo sapiens, C-33-A, 72 h, read-out: IC50 inhibition of cell growth
Procedure: as §1, §2, §3, §4

J82 (bladder) = conditions: 72 h, read-out: IC50 inhibition of cell growth
Procedure: as §1, §2, §3, §4

MT3 (breast) = conditions: 72 h, read-out: IC50 inhibition of cell growth
Procedure: as §1, §2, §3, §4

NCIH82 (lung) = conditions: Homo sapiens, NCI-H82, 72 h, read-out: IC50 inhibition of cell growth
Procedure: as §1, §2, §3, §4

OVCAR4 (ovary) = conditions: Homo sapiens, OVCAR-4, 72 h, read-out: IC50 inhibition of cell growth
Procedure: as §1, §2, §3, §4

SKMEL5 (skin) = conditions: Homo sapiens, SK-MEL-5, 72 h, read-out: IC50 inhibition of cell growth
Procedure: as §1, §2, §3, §4

UMUC3 (bladder) = conditions: Homo sapiens, 72 h, read-out: IC50 inhibition of cell growth
Procedure: as §1, §2, §3, §4

IC50 (A549 (lung)): ≤ 1 µM | IC50 (OVCAR4 (ovary)): ≤ 1 µM | IC50 (SKMEL5 (skin); SKMEL5 (skin)): ≤ 1 µM | IC50 (SKMEL5 (skin); SKMELS (skin)): ≤ 0.1 µM
SMILES: COc1cccc(C(=O)Nc2nc3cc4c(cc3[nH]2)OC(F)(F)O4)c1 [Compound 56, N-(2,2-difluoro-5H-[1,3]dioxolo[4′,5′:4,5]benzo[1,2-d]imidazol-6-yl)-3-methoxybenzamide]
IC50 (C33A (cervix)): ≤ 1 µM | IC50 (J82 (bladder)): ≤ 1 µM | IC50 (MT3 (breast)): ≤ 1 µM | IC50 (NCIH82 (lung)): ≤ 1 µM | IC50 (UMUC3 (bladder)): ≤ 1 µM
